Source: patent publication US7553844B2 (Jarrow Formulas, Inc., priority 2003, dated 2009)

What was measured:
[1] = system: CQ-resistant P. falciparum strain (W2); experiment: P. falciparum LDH activity, CQ with or without PI, W2; format: cell-based, Plasmodium falciparum
Experimental: (§1) A fractional inhibitory concentration (FIC) was then calculated as drug EC90 of drug A in combination with drug 2/EC90 of drug B alone. The effect was considered to be synergistic when the sum of FICs was ≦0.5.
(§2) This assay is based on the principle that plasmodial lactate dehydrogenase (LDH) can use 3-acetylpyridine NAD (APAD) as a coenzyme, which is converted to APADH during lactate oxidation. All samples for LDH determination were measured spectrophotometrically at 650 nm. For these measurements, 10-50 μl of the malaria sample was added to the Mastat reagent, which is an optimized formulation for parasite LDH detection. The samples consisted of malaria cultures. All aliquots were added to 0.2 ml of the Malstat reagent using a 96-well microtiter plate format. The formation of APADH was determined at 650 nm using a multiwavelength plate reader. Each well of a test microtiter plate was automatically measured at 30-sec. intervals, and the individual data points were stored and subsequently plotted with a software program. The spectrophotometric assessment of LDH activity was facilitated by adding NBT (0.24 mM) and PES (0.033 mM) to Malstat reagent. As APADH is formed, the NBT is reduced and forms a formazan product that is blue and can be detected visually and measured at 650 nm. This assay is specific for parasitic LDH and is not influenced by the human enzyme. […]

UG3 (HIV-1 Clade A) = experiment: infection of PBMC with primary isolate UG3, p24; format: cell-based; settings: without CQ
Text: (§3) Laboratory-adapted HIV-1IIIB and HIV-2CBL/20 strans, the primary isolates HIV-1UG3 (Clade A, R5) and HIV-1VI 829 (Clade C, R5), both obtained from antiretroviral-naive subjects were used. These viruses are fully described in the paper by Savarino A. et al. referenced above. The HIV-1PAVIA12 isolate was also used. It was donated by Dr. Maurizia Debiaggi, University of Pavia, Italy, who also performed its genotypic analysis. It belongs to Clade B and was isolated from an individual with HAART failure. […] Viral stocks were titrated biologically by the 50% endpoint dilution method, using MT-2 cells (laboratory strains) or PHA-activated peripheral blood mononuclear cells (PBMC) (primary isolates).
(§4) In acute infection assays, the appropriate cell types were incubated at 37° C. for 2 h with the viral stock suspensions at a multiplicity of infection (MOI) of approximately 0.1, unless otherwise specified. After three washes, cells were incubated in fresh culture medium for 7 days at 37° C., and cell-free supernatants at different intervals post-infection were harvested for ELISA measurement of HIV-1 p24 (NEN Life Science Prod., Boston Mass.) or HIV-2 p27 (Coulter, Hialeah, Fla.) (26, 33).
(§5) Tests were conducted to evaluate the concentrations of each drug in the different combinations that produced 90% inhibition of HIV-1 replication. For each drug combination, the FIC was determined. […]

[2] = system: CQ-sensitive P. falciparum strain (3D7); experiment: P. falciparum LDH activity, CQ with or without PI, 3D7; format: cell-based, Plasmodium falciparum
Experimental: as §1, §2

[3] = system: P. falciparum (3D7, Ibginovia); experiment: P. falciparum LDH activity, protease inhibitors alone; format: cell-based, Plasmodium falciparum; settings: PI alone, 48 h, clinically observable concentrations
Experimental: Results are shown as a percentage of control values.
(§6) Ibginovia is an isolate obtained at the Istituto Superiore di Sanità, Rome, Italy, positive for mutations in the codons K76 and A220 of the pfcrt gene conferring CQ resistance. The parasite's origin is Nigeria. All parasites were maintained in vitro in RPMI 1640 medium to which was added human type A red blood cells (RBC) and 10% heat-inactivated human serum. All cultures were placed in a humidified incubator at 37° C. with a gas-controlled environment of 3% O2, 6% CO2, and 91% N2 and fed according to established procedures.
as §2, with “The samples consisted of malaria cultures. All aliquots were added to 0.2 ml of the Malstat reagent using a 96-well microtiter plate format.” left out, “The spectrophotometric assessment of LDH activity was facilitated by adding NBT (0.24 mM) and PES (0.033 mM) to Malstat reagent.” left out, “nm.” for “nm. This assay is specific for parasitic LDH and is not influenced by the human enzyme.”

HIV-1 IIIB = experiment: acute infection assay, HIV-1 p24 ELISA, MT-4 cells; format: cell-based; settings: Human immunodeficiency virus 1, MT4; HIV-1 IIIB-infected MT-4 cells; data not shown
Text: as §3, §4
A fractional inhibitory concentration (FIC) was then calculated as drug EC90 of drug A in combination with drug 2/EC90 of drug B alone. The effect was considered to be synergistic when the sum of FICs was ≦0.5. […]

P. berghei = experiment: murine malaria model, Balb/c mice infected with P. berghei; format: in vivo, Plasmodium berghei; settings: 50 or 150 mg/kg intragastrically
Experimental: FIG. 6. Antimalarial effects of RTV in mice infected with Plasmodium berghei.
FIG. 6A. Effects of RTV (50 mg/kg) on P. berghei growth in Balb/c mice. Results are shown as an average ±S.D. of the percentage of parasitized red blood cells at different days of follow-up.
FIG. 6B. Effects of RTV (50 mg/kg) on survival of mice infected with P. berghei. Results are shown as Kaplan Meyer curves and the P value for difference in survival is reported.
FIG. 6C. Effects of RTV (150 mg/kg) on P. berghei growth in Balb/c mice. Results are shown as an average ±S.D. of the percentage of parasitized red blood cells at different days of follow-up.
FIG. 6D. Effects of RTV (150 mg/kg) on survival of mice infected with P. berghei. Results are shown as Kaplan Meyer curves and the P value for difference in survival is reported.
Parasitemia was determined by light microscopy using Giemsa-stained thin smears and with fluorescence microscopy using the dye benzothiocarboxypurine.
To evaluate the effects of a PI in an animal model of malaria, Balb/c mice were inoculated intraperitoneally with P. berghei and then divided into three groups: 1) mock-treated with an intragastric inoculation of phosphate-buffer saline (PBS), 2) treated intragastrically with the ritonavir diluent (i.e., a 47% alcoholic solution) in the absence of ritonavir (placebo), and 3) treated intragastrically with 50 or 150 mg/kg.

[4] = system: CQ-resistant P. falciparum field isolate (Ibginovia); experiment: P. falciparum LDH activity, CQ with or without PI, Ibginovia; format: cell-based, Plasmodium falciparum; settings: PI with CQ, 48 h; PI at sub-optimally inhibiting concentration
Text: In order to illustrate typical results, data are shown as a mean ±S.D. optical density (O.D.) at the end of a reaction mediated by plasmodial lactate dehydrogenase (LDH), as described in the Materials and Methods of the EXAMPLES section. The O.D. values are directly proportional to P. falciparum cell viability.
as §6, with “All cultures were placed in a humidified incubator at 37° C. with a gas-controlled environment of 3% O2, 6% CO2, and 91% N2 and fed according to established procedures.” left out
This assay is based on the principle that plasmodial lactate dehydrogenase (LDH) can use 3-acetylpyridine NAD (APAD) as a coenzyme, which is converted to APADH during lactate oxidation. All samples for LDH determination were measured spectrophotometrically at 650 nm. […] The formation of APADH was determined at 650 nm using a multiwavelength plate reader. Each well of a test microtiter plate was automatically measured at 30-sec. intervals, and the individual data points were stored and subsequently plotted with a software program. […] As APADH is formed, the NBT is reduced and forms a formazan product that is blue and can be detected visually and measured at 650 nm. […]

primary HIV-1 isolates = format: cell-based; settings: 1 μM CQ; data not shown
Text: as §3, §4, §5

| Structure (SMILES) | sum of FICs ([1]; CQ+PI combination, W2 strain, ≦0.5 indicates synergism) | response to CQ in CQ-resistant P. falciparum ([1]; IDV (5 μM) with CQ, 48 h) | p24 levels in supernatants (UG3 (HIV-1 Clade A); 100 nM IDV, 5 days after infection) | IDV concentration at which inhibitory effects were visible (UG3 (HIV-1 Clade A)) [µM] | sum of FICs ([2]; CQ+PI combination, 3D7 strain) | effects of IDV on CQ-response ([2]; IDV (5 μM) with CQ, compared with CQ-resistant strains) | P. falciparum growth (LDH activity) [3] | EC50 (HIV-1 IIIB) [nM] | parasite multiplication in mice (P. berghei; Balb/c mice) | survival of treated mice (P. berghei; Kaplan-Mayer curves) | response to CQ in CQ-resistant P. falciparum [4] | inhibitory effect of CQ alone (primary HIV-1 isolates) |
| --- | --- | --- | --- | --- | --- | --- | --- | --- | --- | --- | --- | --- |
| CC(C)(C)NC(=O)[C@@H]1CN(Cc2cccnc2)CCN1C[C@@H](O)C[C@@H](Cc1ccccc1)C(=O)N[C@H]1c2ccccc2C[C@H]1O [IDV, indinavir] | ≤ 0.5 | restored the response to CQ | typical peak in the p24 levels in supernatants | 1 | > 0.5 | less dramatic | dose-dependently inhibited P. falciparum growth | ~10 |  |  |  |  |
| CC(C)c1nc(CN(C)C(=O)N[C@H](C(=O)N[C@@H](Cc2ccccc2)C[C@H](O)[C@H](Cc2ccccc2)NC(=O)OCc2cncs2)C(C)C)cs1 [RTV, ritonavir] |  |  |  |  |  |  | dose-dependently inhibited P. falciparum growth |  | dose-dependently retarded parasite multiplication in mice | increased survival of treated mice in a significant manner | restored the response to CQ |  |
| CCN(CC)CCCC(C)Nc1ccnc2cc(Cl)ccc12 (stereo not shown) [CQ, Chloroquine] |  |  |  |  |  |  |  |  |  |  |  | minimal |
